From the supplement of paper PMC11451515

Assays:
Details in all cases: 48 h
NOMO1 [1] = test: AUC of viability dose-response curve (% viability x log10 dose units); higher = less sensitive
In short: (§1)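 Library compounds in DMSO were applied for 48 h at 37°C at 11 threefold doses (47 μM to 0.79 nM) to medium-adapted leukemia cells in 1536-well plates holding 500 or 1000 cells/well. Luminescence from CellTiter-Glo One was normalised plate by plate against DMSO and cell-free wells. Area under the curve came from trapezoidal integration of a log-logistic fit, after scaling curves that rose above full viability and discarding those that failed quality control. The fit had four parameters and used log10 doses.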

P12-Ichikawa [2] = test: as above
In short: as §1

SEM cells [3] = test: as above
In short: as §1

NOMO1 [4] = test: cell viability relative to DMSO control; higher = less cytotoxic
In short: (§2)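 NOMO1, SEM and P12-Ichikawa leukemia cells spent at least four passages adapting to each medium before use. They were seeded at 500 cells/well (NOMO1, SEM) or 1000 cells/well (P12-Ichikawa) in 5 μl in 1536-well plates and pin-dosed with library compounds in DMSO at 11 threefold steps from 47 μM down to 0.79 nM. After 48 h at 37°C, CellTiter-Glo One luminescence was read. Viability is reported as a percentage of the DMSO wells on each plate, with cell-free wells as background.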

P12-Ichikawa [5] = test: as above
In short: as §2

SEM cells [6] = test: as above
In short: as §2

CC(C)(F)C[C@H](N[C@@H](c1ccc(-c2ccc([S+](C)(=O)[O-])cc2)cc1)C(F)(F)F)C(=O)NC1(C#N)CC1
AUC of viability dose-response curve
Details | NOMO1 [1] | P12-Ichikawa [2] | SEM cells [3]
HPLM + 10% dialyzed FBS | 467 | 471 | 454
RPMI 5 mM glucose + 10% FBS | 427 | 471 | 452
RPMI 5 mM glucose + 10% dialyzed FBS | 446 | 474 | 475

cell viability [%]
Details | NOMO1 [4] | P12-Ichikawa [5] | SEM cells [6]
HPLM + 10% dialyzed FBS, 0.000781 µM | 91.5 | 106 | 88.3
HPLM + 10% dialyzed FBS, 0.00234 µM | 113 | 120 | 93.8
HPLM + 10% dialyzed FBS, 0.00702 µM | 111 | 111 | 93.1
HPLM + 10% dialyzed FBS, 0.0211 µM | 113 | 112 | 96.1
HPLM + 10% dialyzed FBS, 0.0632 µM | 108 | 115 | 95.9
HPLM + 10% dialyzed FBS, 0.19 µM | 103 | 117 | 91
HPLM + 10% dialyzed FBS, 0.569 µM | 107 | 124 | 96.3
HPLM + 10% dialyzed FBS, 1.71 µM | 116 | 115 | 97.5
HPLM + 10% dialyzed FBS, 5.12 µM | 111 | 112 | 104
HPLM + 10% dialyzed FBS, 15.4 µM | 94.6 | 110 | 95.9
HPLM + 10% dialyzed FBS, 46.1 µM | 89.8 | 98.7 | 91.6
RPMI 5 mM glucose + 10% FBS, 0.000781 µM | 124 | 99.9 | 90.4
RPMI 5 mM glucose + 10% FBS, 0.00234 µM | 136 | 114 | 116
RPMI 5 mM glucose + 10% FBS, 0.00702 µM | 125 | 111 | 112
RPMI 5 mM glucose + 10% FBS, 0.0211 µM | 124 | 121 | 117
RPMI 5 mM glucose + 10% FBS, 0.0632 µM | 119 | 120 | 114
RPMI 5 mM glucose + 10% FBS, 0.19 µM | 116 | 111 | 105
RPMI 5 mM glucose + 10% FBS, 0.569 µM | 109 | 112 | 93.1
RPMI 5 mM glucose + 10% FBS, 1.71 µM | 115 | 109 | 109
RPMI 5 mM glucose + 10% FBS, 5.12 µM | 106 | 113 | 96.5
RPMI 5 mM glucose + 10% FBS, 15.4 µM | 97.5 | 106 | 90.3
RPMI 5 mM glucose + 10% FBS, 46.1 µM | 102 | 98.7 | 85.8
RPMI 5 mM glucose + 10% dialyzed FBS, 0.000781 µM | 105 | 93.8 | 105
RPMI 5 mM glucose + 10% dialyzed FBS, 0.00234 µM | 125 | 115 | 117
RPMI 5 mM glucose + 10% dialyzed FBS, 0.00702 µM | 117 | 106 | 124
RPMI 5 mM glucose + 10% dialyzed FBS, 0.0211 µM | 121 | 106 | 107
RPMI 5 mM glucose + 10% dialyzed FBS, 0.0632 µM | 103 | 121 | 119
RPMI 5 mM glucose + 10% dialyzed FBS, 0.19 µM | 108 | 111 | 126
RPMI 5 mM glucose + 10% dialyzed FBS, 0.569 µM | 112 | 111 | 108
RPMI 5 mM glucose + 10% dialyzed FBS, 1.71 µM | 109 | 111 | 114
RPMI 5 mM glucose + 10% dialyzed FBS, 5.12 µM | 101 | 109 | 115
RPMI 5 mM glucose + 10% dialyzed FBS, 15.4 µM | 101 | 101 | 123
RPMI 5 mM glucose + 10% dialyzed FBS, 46.1 µM | 92.3 | 99.5 | 103

CC[S+](=O)([O-])Nc1ccc2c(c1)/C(=C(/Nc1ccc(CN3CCCCC3)cc1)c1ccccc1)C(=O)N2
AUC of viability dose-response curve
Details | NOMO1 [1] | P12-Ichikawa [2] | SEM cells [3]
HPLM + 10% dialyzed FBS | 335 | 276 | 223
RPMI 5 mM glucose + 10% FBS | 314 | 274 | 232
RPMI 5 mM glucose + 10% dialyzed FBS | 323 | 297 | 230

cell viability [%]
Details | NOMO1 [4] | P12-Ichikawa [5] | SEM cells [6]
HPLM + 10% dialyzed FBS, 0.000781 µM | 111 | 106 | 117
HPLM + 10% dialyzed FBS, 0.00234 µM | 114 | 114 | 112
HPLM + 10% dialyzed FBS, 0.00702 µM | 111 | 115 | 108
HPLM + 10% dialyzed FBS, 0.0211 µM | 110 | 109 | 95.5
HPLM + 10% dialyzed FBS, 0.0632 µM | 113 | 111 | 71.3
HPLM + 10% dialyzed FBS, 0.19 µM | 85 | 12.9 | 27.8
HPLM + 10% dialyzed FBS, 0.569 µM | 79.3 | 11.6 | 23.9
HPLM + 10% dialyzed FBS, 1.71 µM | 59.1 | 18.7 | 19.4
HPLM + 10% dialyzed FBS, 5.12 µM | 45.9 | 27.1 | 18.5
HPLM + 10% dialyzed FBS, 15.4 µM | 33.8 | 54.3 | 5.02
HPLM + 10% dialyzed FBS, 46.1 µM | 10.4 | 32.2 | 3.36
RPMI 5 mM glucose + 10% FBS, 0.000781 µM | 104 | 127 | 110
RPMI 5 mM glucose + 10% FBS, 0.00234 µM | 102 | 116 | 108
RPMI 5 mM glucose + 10% FBS, 0.00702 µM | 111 | 120 | 111
RPMI 5 mM glucose + 10% FBS, 0.0211 µM | 117 | 119 | 108
RPMI 5 mM glucose + 10% FBS, 0.0632 µM | 99.3 | 114 | 89.1
RPMI 5 mM glucose + 10% FBS, 0.19 µM | 49.3 | 14.3 | 17.9
RPMI 5 mM glucose + 10% FBS, 0.569 µM | 47.5 | 17.4 | 18.1
RPMI 5 mM glucose + 10% FBS, 1.71 µM | 53.1 | 30.7 | 13.8
RPMI 5 mM glucose + 10% FBS, 5.12 µM | 47.6 | 35.3 | 10
RPMI 5 mM glucose + 10% FBS, 15.4 µM | 39.9 | 51.4 | 3.47
RPMI 5 mM glucose + 10% FBS, 46.1 µM | 18.5 | 21.4 | 2.27
RPMI 5 mM glucose + 10% dialyzed FBS, 0.000781 µM | 99.2 | 123 | 118
RPMI 5 mM glucose + 10% dialyzed FBS, 0.00234 µM | 102 | 117 | 110
RPMI 5 mM glucose + 10% dialyzed FBS, 0.00702 µM | 121 | 121 | 126
RPMI 5 mM glucose + 10% dialyzed FBS, 0.0211 µM | 101 | 118 | 103
RPMI 5 mM glucose + 10% dialyzed FBS, 0.0632 µM | 104 | 121 | 89.7
RPMI 5 mM glucose + 10% dialyzed FBS, 0.19 µM | 62 | 22.6 | 18.5
RPMI 5 mM glucose + 10% dialyzed FBS, 0.569 µM | 63.8 | 25.8 | 16.3
RPMI 5 mM glucose + 10% dialyzed FBS, 1.71 µM | 54.5 | 47.3 | 13.6
RPMI 5 mM glucose + 10% dialyzed FBS, 5.12 µM | 44.6 | 52 | 11.5
RPMI 5 mM glucose + 10% dialyzed FBS, 15.4 µM | 37.1 | 59.8 | 6.15
RPMI 5 mM glucose + 10% dialyzed FBS, 46.1 µM | 18.2 | 18.8 | 2.34

N#C/C(=C\c1ccc(O)c(O)c1)C(=O)NCc1ccccc1
AUC of viability dose-response curve
Details | NOMO1 [1] | P12-Ichikawa [2] | SEM cells [3]
HPLM + 10% dialyzed FBS | 446 | 448 | 447
RPMI 5 mM glucose + 10% FBS | 447 | 436 | 440
RPMI 5 mM glucose + 10% dialyzed FBS | 460 | 421 | 440

cell viability [%]
Details | NOMO1 [4] | P12-Ichikawa [5] | SEM cells [6]
HPLM + 10% dialyzed FBS, 0.000781 µM | 103 | 101 | 103
HPLM + 10% dialyzed FBS, 0.00234 µM | 111 | 96.5 | 103
HPLM + 10% dialyzed FBS, 0.00702 µM | 124 | 103 | 109
HPLM + 10% dialyzed FBS, 0.0211 µM | 110 | 106 | 113
HPLM + 10% dialyzed FBS, 0.0632 µM | 98.6 | 104 | 113
HPLM + 10% dialyzed FBS, 0.19 µM | 118 | 106 | 102
HPLM + 10% dialyzed FBS, 0.569 µM | 122 | 103 | 93.2
HPLM + 10% dialyzed FBS, 1.71 µM | 98.5 | 100 | 104
HPLM + 10% dialyzed FBS, 5.12 µM | 91.7 | 102 | 105
HPLM + 10% dialyzed FBS, 15.4 µM | 92.8 | 68.5 | 72.8
HPLM + 10% dialyzed FBS, 46.1 µM | 64.7 | 47.4 | 37.2
RPMI 5 mM glucose + 10% FBS, 0.000781 µM | 100 | 105 | 103
RPMI 5 mM glucose + 10% FBS, 0.00234 µM | 93.2 | 106 | 100
RPMI 5 mM glucose + 10% FBS, 0.00702 µM | 84.5 | 101 | 101
RPMI 5 mM glucose + 10% FBS, 0.0211 µM | 93.3 | 101 | 105
RPMI 5 mM glucose + 10% FBS, 0.0632 µM | 106 | 103 | 114
RPMI 5 mM glucose + 10% FBS, 0.19 µM | 92.1 | 94.3 | 111
RPMI 5 mM glucose + 10% FBS, 0.569 µM | 86.7 | 103 | 107
RPMI 5 mM glucose + 10% FBS, 1.71 µM | 91.3 | 97.6 | 112
RPMI 5 mM glucose + 10% FBS, 5.12 µM | 96.5 | 87 | 96.4
RPMI 5 mM glucose + 10% FBS, 15.4 µM | 97.6 | 68.2 | 80.2
RPMI 5 mM glucose + 10% FBS, 46.1 µM | 89 | 36.7 | 9.69
RPMI 5 mM glucose + 10% dialyzed FBS, 0.000781 µM | 98 | 95.2 | 111
RPMI 5 mM glucose + 10% dialyzed FBS, 0.00234 µM | 103 | 96.1 | 107
RPMI 5 mM glucose + 10% dialyzed FBS, 0.00702 µM | 110 | 99.5 | 96.4
RPMI 5 mM glucose + 10% dialyzed FBS, 0.0211 µM | 105 | 97 | 106
RPMI 5 mM glucose + 10% dialyzed FBS, 0.0632 µM | 102 | 98.7 | 114
RPMI 5 mM glucose + 10% dialyzed FBS, 0.19 µM | 110 | 88.3 | 102
RPMI 5 mM glucose + 10% dialyzed FBS, 0.569 µM | 99.3 | 93.1 | 104
RPMI 5 mM glucose + 10% dialyzed FBS, 1.71 µM | 108 | 94.7 | 101
RPMI 5 mM glucose + 10% dialyzed FBS, 5.12 µM | 89.7 | 80.3 | 101
RPMI 5 mM glucose + 10% dialyzed FBS, 15.4 µM | 95.4 | 67.7 | 69
RPMI 5 mM glucose + 10% dialyzed FBS, 46.1 µM | 83.8 | 41.5 | 26.4
